Experimental data taken from PMC7312911, “Affibody-Binding Ligands” (International Journal of Molecular Sciences, 2020).
Where no end group is shown, it is not given here.

Legend:
anti-HSA affibody [1] = assay: Affibody binding/elution in non-competitive conditions on peptide–Toyopearl, anti-HSA affibody; conditions: 100 μL of 50:50 labeled anti-HSA and anti-IgG affibodies, total 1 mg/mL, in PBS pH 7.4; 50 μL resin; 1 h, room temperature; elution 0.2 M acetate pH 3.8; fluorescence spectroscopy
Experimental: (§1) Ten peptides selected by sequence homology, namely, ARISRQ, IGKQRI, DIRIIR, QAAKRI, SHHSQR, DIHIRR, DHHKKA, DIRIQR, KSAYHS, and IHQRGQ, were tested as ligand candidates through binding studies in non-competitive conditions (pure affibody). The peptides were synthesized directly on Toyopearl AF-Amino 650 M resin by Fmoc/tBu synthesis; polymethacrylate-based Toyopearl resin was chosen as a chromatographic support for secondary screening in place of ChemMatrix, owing to its chemical resistance to the reagents and solvents used for peptide synthesis, low non-specific protein binding, and mechanical strength. The peptide–Toyopearl adsorbents were individually incubated with a 1:1 solution of AF594-labeled anti-HSA affibody and AF488-labeled anti-IgG affibody at the concentration of 1 mg/mL for 1 h at room temperature under gentle rotation. After washing with PBS, affibody elution (EL) was performed under acidic conditions (pH 3.8), followed by resin regeneration (R) using a harsh denaturing buffer (0.45% w/v 3-[(3-cholamidopropyl)dimethylammonio]-1-propanesulfonate (CHAPS) in 0.1 M glycine, pH 2.5). The amounts of affibodies in the unbound (UB), elution (EL), and regeneration (R) fractions, measured by fluorescence spectroscopy, were utilized to calculate the values of flow-through (FT) ratio (mass of affibody in the FT fraction vs. mass of fed antibody) and yield (mass of affibody eluted vs. mass of bound affibody), listed in Table 2.
(§2) The identified sequences were synthesized on Toyopearl AF-Amino 650 M resin by Fmoc/tBu synthesis to be tested for affibody binding in non-competitive mode. Aliquots of 50 μL of each peptide–Toyopearl adsorbent were transferred in a PCR tube, swollen in 20% methanol overnight, and copiously washed in 20% methanol to remove any residual chemical from peptide synthesis, before equilibrating in Milli-Q water followed by PBS, pH 7.4. Next, 100 μL of 50:50 solution of fluorescently labeled anti-HSA and anti-IgG affibodies (Section 2.3) at a total 1 mg/mL affibody concentration were incubated with every aliquot of peptide–Toyopearl resin for 1 h at room temperature under gentle rotation. Following incubation, the resins were pelleted by centrifugation, and the supernatant was collected and marked as “unbound” (UB) fraction. The resins were then washed with PBS and the supernatant were combined with the UB fractions. Protein elution (EL) was then performed by incubating the resins with 0.2 M acetate buffer at pH 3.8 (0.2 M acetic acid and 0.2 M sodium acetate at a 7:3 ratio) for 30 min at room temperature, and then by washing with the same elution buffer. Regeneration (R) was then performed by incubating the adsorbents with 100 mM glycine buffer at pH 2.5 added with 0.45% w/v CHAPS, at 4 °C for overnight. The collected elution fractions (EL and R) were finally equilibrated to neutral pH using PBS, pH 7.4. Finally, both UB and E fractions were diluted in PBS and analyzed by fluorescence spectroscopy.

anti-IgG affibody [2] = assay: Affibody binding/elution in non-competitive conditions on peptide–Toyopearl, anti-IgG affibody; conditions: 100 μL of 50:50 labeled anti-HSA and anti-IgG affibodies, total 1 mg/mL, in PBS pH 7.4; 50 μL resin; 1 h, room temperature; elution 0.2 M acetate pH 3.8; fluorescence spectroscopy
Experimental: as §1, §2

[3] = test system: 1:1 solution of AF594-labeled anti-HSA affibody and AF488-labeled anti-IgG affibody; assay: Affibody binding/elution in non-competitive conditions on peptide–Toyopearl, affibody mixture; conditions: for Yield (mass of affibody eluted vs. mass of bound affibody): non-competitive (pure affibody), PBS pH 7.4, 1 h, room temperature, elution pH 3.8, fluorescence spectroscopy; for capture of IgG-binding and HSA-binding affibodies compared: non-competitive, pure affibodies 1:1
Experimental: as §1, §2

anti-HSA affibody [4] = assay: Affibody purification in competitive conditions (clarified E. coli cell lysate), anti-HSA affibody; type: binding; conditions: elution pH 3.8; for Recovery, anti-HSA affibody: 0.4 mg/mL affibody and 2 mg/mL E. coli HCPs, 200 μL feed, room temperature, eluted vs. loaded amount, fluorescence spectroscopy; for Purity, anti-HSA affibody: competitive, clarified E. coli cell lysate, densitometric analysis of EL lanes, SDS-PAGE
Experimental: (§3) The adsorbents IGKQRI–GSG–Toyopearl, IHQRGQ–GSG–Toyopearl, KSAYHS–GSG–Toyopearl, and DIRIIR–GSG–Toyopearl resins were utilized to evaluate the ability of the selected sequences to purify affibody molecules from complex sources. To this end, a feed sample was prepared by spiking fluorescently labeled anti-HSA and anti-IgG affibodies at a 1:1 molar ratio into clarified E. coli cell lysate, to obtain a final concentration of 0.4 mg/mL of affibody and 2 mg/mL of bacterial HCPs. The peptide–Toyopearl adsorbents were incubated with 200 μL of feed sample for 30 min at room temperature under gentle rotation. The unbound (UB) and elution (EL) fractions were analyzed by fluorescence spectroscopy and SDS-PAGE (Figure 1) to determine the values of recovery and purity for both affibody products (Table 3). It is noted that the mass of the affibody product measured electrophoretically appears to be double than the theoretical 6.5 kDa; this is likely due to dimerization of the affibodies by formation of a disulfide bond through their C-terminal cysteine residues.
(§4) Three sequences selected in Section 2.6 were then evaluated for affibody binding in competitive mode. Aliquots of 100 μL of the peptide–Toyopearl adsorbents were swollen and equilibrated as described in Section 2.6. The feed sample was prepared by combining 100 μL of equimolar solution of fluorescently labeled anti-HSA and anti-IgG affibodies at a total 2 mg/mL affibody concentration with 400 μL of clarified E. coli cell lysate at the adjusted concentration of host cell proteins (HCPs) of 2.5 mg/mL, to obtain a final concentration of 0.4 mg/mL of affibody and 2 mg/mL of HCPs. Next, 200 μL of feed samples were incubated with each aliquot of wet peptide–Toyopearl resin for 2 h at room temperature under gentle rotation. After incubation, unbound (UB) and elution (EL) fractions were obtained as described in Section 5.2.5; they were then analyzed by fluorescence spectroscopy to determine the yield of both affibodies and finally by SDS-PAGE to determine the total purity of the eluted affibody products.
(§5) The collected fractions were desalted into phosphate buffer at pH 7.4 using Amicon Ultra 0.5-mL centrifugal filters (3 kDa MWCO). Based on the total protein concentration determined by Bradford assay, the collected fractions were adjusted at a total protein concentration of 0.1 mg/mL, diluted 1:1 with 2× Laemmli sample buffer containing 5% β-mercaptoethanol, and incubated at 100 °C for 5 min. Next, 20 µL of each sample was loaded onto each well of a 12% Mini PROTEAN® TGX precast electrophoresis gel. Then, 10 µL of Precision Plus Protein TM Dual Color Standards diluted 100× in Laemmli sample buffer was loaded in the first and last wells. Gels were electrophoresed at 100 V constant for 95 min using a Mini PROTEAN Tetra Cell (Bio-Rad, Hercules, CA, USA) linked to a PowerPac 300 power supply (Bio-Rad). Gels were fixed in 10% acetic acid, 40% ethanol in MilliQ water for 1 h. Fixed gels were washed with MilliQ water and Coomassie stained. Imaging and densitometric analysis were performed with a GelDoc XR+ (Bio-Rad) and Image Lab software (Bio-Rad) with band intensities scaled to the intensity of an affibody standard.

anti-IgG affibody [5] = assay: Affibody purification in competitive conditions (clarified E. coli cell lysate), anti-IgG affibody; type: binding; conditions: elution pH 3.8; for Recovery, anti-IgG affibody: 0.4 mg/mL affibody and 2 mg/mL E. coli HCPs, 200 μL feed, room temperature, eluted vs. loaded amount, fluorescence spectroscopy; for Purity, anti-IgG affibody: competitive, clarified E. coli cell lysate, densitometric analysis of EL lanes, SDS-PAGE
Experimental: as §3, §4, §5

[6] = test system: anti-IgG, anti-HSA, and anti-ErbB2 affibodies; assay: Langmuir adsorption isotherms, all three affibodies; type: binding
Experimental: The adsorption isotherms of anti-IgG, anti-HSA, and anti-ErbB2 affibodies on IGKQRI–GSG–Toyopearl resin were performed as described in prior work [37, 51]. Toyopearl resins functionalized with human IgG and serum albumin were utilized as corresponding positive controls, while Toyopearl® HW-40F was utilized as a negative control. Briefly, the adsorbents were incubated with solutions of target affibody at concentrations ranging between 0.01 and 2 mg/mL until binding equilibrium was reached (2.5 h). The values of bound affibody per volume of resin (q) and the corresponding equilibrium concentration of unbound affibody (C*) were fit to a Langmuir isotherm model to determine the value of maximum binding capacity (Qmax) and dissociation constant (KD,Langmuir).
Eight 50-µL aliquots of IGKQRI–GSG–Toyopearl resin were initially equilibrated in PBS at pH 7.4. Eight 0.2-mL solutions of anti-hIgG, anti-hHSA, and anti-ErbB2 affibodies in PBS at concentrations ranging from 0.01 to 2 mg/mL were prepared and incubated with the aliquots of IGKQRI–GSG–Toyopearl resin for 2.5 h at room temperature under mild shaking. […] The supernatant and washing solutions were combined and analyzed by fluorescence spectroscopy to determine the equilibrium concentration of affibody solution. The mass of affibody bound by the resin was determined by mass balance. […]

Substance	mFT/mE (Anti-HSA), flow-through elution mass ratio (anti-HSA affibody [1])	mFT/mE (Anti-IgG), flow-through elution mass ratio (anti-IgG affibody [2])	Yield (mass of affibody eluted vs. mass of bound affibody) [3] [%]	capture of IgG-binding and HSA-binding affibodies compared [3]	Recovery, anti-HSA affibody (anti-HSA affibody [4])	Purity, anti-HSA affibody (anti-HSA affibody [4]) [%]	Recovery, anti-IgG affibody (anti-IgG affibody [5])	Purity, anti-IgG affibody (anti-IgG affibody [5]) [%]	binding of all target affibodies compared ([6]; Langmuir isotherms)	binding capacity (Qmax), summary ([6]; static binding, pure affibodies, summary over three affibodies)
DIRIQR	2.401	0.445	39.5	–	–	–	–	–	–	–
IGKQRI [IGKQRI]	0.628	0.448	–	equal capture of IgG-binding and HSA-binding affibodies	95.2% ± 4.6%	94.1	97.2% ± 1.5%	95.8	comparable affinity and binding capacity	~ 5 mg affibody per mL of resin
DIRIIR	1.553	0.707	–	–	74.9% ± 3.6%	96.2	78.3% ± 2.5%	96.5	–	–
KSAYHS	0.796	0.405	–	equal capture of IgG-binding and HSA-binding affibodies	89.5% ± 0.7%	96.3	88.6% ± 3.4%	96.4	–	–
DHHKKA	2.039	1.256	38.5	–	–	–	–	–	–	–

The next lines start with results.

mFT/mE (Anti-HSA), flow-through elution mass ratio (anti-HSA affibody [1])	mFT/mE (Anti-IgG), flow-through elution mass ratio (anti-IgG affibody [2])	Yield (mass of affibody eluted vs. mass of bound affibody) [3] [%]	Substance	capture of IgG-binding and HSA-binding affibodies compared [3]	Recovery, anti-HSA affibody (anti-HSA affibody [4])	Purity, anti-HSA affibody (anti-HSA affibody [4]) [%]	Recovery, anti-IgG affibody (anti-IgG affibody [5])	Purity, anti-IgG affibody (anti-IgG affibody [5]) [%]	binding of all target affibodies compared ([6]; Langmuir isotherms)	binding capacity (Qmax), summary ([6]; static binding, pure affibodies, summary over three affibodies)
0.801	2.245	35	QAAKRI	–	–	–	–	–	–	–
1.387	1.238	44.3	SHHSQR	–	–	–	–	–	–	–
0.781	0.446	–	IHQRGQ	equal capture of IgG-binding and HSA-binding affibodies	96.1% ± 2.4%	92.6	95.3% ± 4.5%	93.1	–	–
1.709	0.885	51.7	ARISRQ	–	–	–	–	–	–	–
0.473	1.277	40.4	DIHIRR	–	–	–	–	–	–	–
